Experiment [1] has as its target recombinant human Ndc80 kinetochore complex binding to taxol-stabilized microtubules. The experiment is described as follows: Ndc80^488 complex-MT binding assay (fluorescence microscopy / TIRF). To be noted: for IC50: total internal reflection fluorescence microscopy, Ndc80^488 complex 0.1 µmol/l, taxol-stabilized MTs; for Fold more active than compound B in the Ndc80^488 complex-MT binding assay: versus compound B. An excerpt:
To screen compound libraries for molecules inhibiting binding of the outer kinetochore Ndc80 complex (Ndc80, Nuf2, Spc24, Spc25) to MTs, we used a fluorescence microscopy-based in vitro approach (Fig. 1). First, the recombinant human Ndc80 construct, used to crystallize the complex, was produced in Escherichia coli using a bicistronic plasmid from which the Nuf2-Spc24 and Ndc80-Spc25 peptides were generated (Fig. 1A). Following their intracellular assembly, the complex was purified from E. coli cell extract based on the GST tag at the N-terminus of Nuf2. The complex was released in solution with PreScission Protease (its recognition sequence was introduced between the GST tag and the NUF2 coding sequence) and was separated from contaminants by gel filtration chromatography (Fig. 1A). The high degree of purity of the preparation was confirmed by SDS-PAGE analysis and coomassie staining, which identified only both peptides (Fig. 1B). Next, the Ndc80 complex was fluorescently labeled with the Alexa Fluor 488 C5-maleimide (next named the Ndc80^488 complex) and was separated from unreacted fluorophore by gel filtration chromatography. The final preparation was highly pure as evidenced by gel filtration analysis and detection at 519 nm (emission maximum of the Alexa Fluor 488 dye) and at 280 nm (intrinsic protein fluorescence) (Fig. 1B). Next, the Ndc80^488 complex (0.1 µmol/l) was incubated with 10,200 compounds (comprising the Chembridge DIVERset and a compound collection from the Univ. Rome) at a starting concentration of 50 µmol/l. Binding (or lack thereof) of the complex to rhodamine-labeled taxol-stabilized MTs (0.1 µmol/l) was scored by wide-field fluorescence microscopy (Fig. 1C; images in Fig. 2A). […] Total internal reflection fluorescence microscopy was used to establish the IC50 value of the compound, which was measured to be ∼20 µmol/l (Fig. 2C).
Recombinant human Ndc80 complex (Ndc80^Bonsai complex) was produced in Escherichia coli using a bicistronic expression plasmid (Fig. 1A, [12]). Following transcription from the TAC promoter/operator by induction with 0.4 mmol/l IPTG (20°C, 15 h), GST-Nuf2-Spc24 and Ndc80-Spc25 polypeptides were generated, which dimerized intracellulary into the GST-Ndc80 complex. The complex was isolated from E. coli cell extract following incubation with glutathione beads. The complex was released from the beads with PreScission Protease (GE Healthcare Life Sciences) and contaminants were removed by gel filtration chromatography (Superdex 200, GE Healthcare Life Sciences). On average 4 mg of Ndc80 complex were obtained from 1 liter of cell culture. Next, 1 mg Ndc80 complex was labeled with 0.1 mg Alexa Fluor 488 C5-maleimide fluorophore (Invitrogen) at a 1.5-2 stoichiometry. The fluorescent complex (Ndc80^488 complex) was separated from unreacted fluorophore by gel filtration chromatography (Fig. 1B) and was then used to screen for compounds inhibiting Ndc80^488 complex-MT binding (Fig. 1C). The Ndc80^488 complex is fully functional as it is recruited to and acts at kinetochores when injected into prometaphase HeLa cells.
MTs were polymerized (30 min, 37°C) from a 1∶10 mixture of rhodamine-labeled:unlabeled bovine brain αβ-tubulin (Cytoskeleton) in BRB-80 buffer (80 mmol/l PIPES pH 6.8, 1 mmol/l MgCl2, 1 mmol/l EGTA) and were then stabilized with 20 µmol/l taxol. The Ndc80^488 complex (0.1 µmol/l) was incubated with 100 µmol/l compound (30 min, 24°C) in 96-well polypropylene plates (Eppendorf). The 10,000 compound DIVERset library (Chembridge) and 200 compounds from the Department of Medicinal Chemistry and Technologies, University of Rome La Sapienza were used in the screen. Next, the MTs (100 nmol/l) were added to the compound-Ndc80^488 complex solution in a 1∶1 v/v ratio. After incubation (10 min, 24°C), the reaction mixtures were transferred to 96-well glass-bottom plates (Greiner Bio-one). […]

In another experiment the test system is αβ-tubulin. The experiment is described as follows: Tubulin polymerization tracked turbidimetrically at 350 nm. Format: biochemical. To be noted: turbidimetric; versus compound B. The procedure: To quantify the antitubulin activity of compound B, we added 1–50 µmol/l compound B to 10 µmol/l αβ-tubulin. […] For this purpose, MTs were assembled from 10 µmol/l αβ-tubulin; 5 min into the reaction compound B was added in concentrations up to 200 µmol/l. MT depolymerization was tracked as a decrease in turbidity at 350 nm (Fig. 5B).
Polymerization of 10 µmol/l αβ-tubulin in BRB-80 buffer was monitored turbidimetrically at 350 nm for 15 min in a temperature-controlled spectrophotometer (37°C; SpectraMax Plus^384, Molecular Devices). To probe the effect of a compound on MT stability the molecule was added 5 min after initiation of tubulin assembly. The decrease in protein turbidity (350 nm) resulting from MT depolymerization was followed for 15 min at 37°C [13]. Quantitative comparisons of drug effects on tubulin assembly were also examined in 0.8 M glutamate with a 15 min drug-tubulin preincubation prior to the addition of GTP [14]. Tubulin assembly was monitored for 20 min at 30°C in Beckman DU7400/7500 spectrophotometers, and the compound concentration inhibiting tubulin assembly by 50% was determined.

For experiment [2], the system named is colchicine site in αβ-tubulin. The experiment is described as follows: [3H]colchicine competition (DEAE-cellulose filter method). In kind it is binding. To be noted: [3H]colchicine 5 µmol/l, tubulin 1 µmol/l. An excerpt: Agents that inhibit tubulin polymerization and destabilize MTs include the colchicinoids, combretastatins, benzimidazole carbamates, vinca alkaloids, and maytansinoids. These drugs act primarily at β-tubulin in the αβ-heterodimer, albeit at different sites. Colchicinoids, combretastatins and benzimidazole carbamates (e.g. nocodazole) localize to the colchicine site near the C-terminus of β-tubulin at the αβ-tubulin intradimer interface, [16], whereas vinca alkaloids and maytansinoids localize to the N-terminal GTPase domain of β-tubulin [17], [18]. […] Its binding affinity, however, was ∼3-fold lower than that of nocodazole (compare values at 5 µmol/l and 20 µmol/l, Fig. 5C).
Tubulin binding of [^3H]colchicine was measured by the DEAE-cellulose filter method. Reaction mixtures contained 1.0 µmol/l αβ-tubulin, 1.0 mol/l monosodium glutamate, 0.1 mol/l glucose-1-phosphate, 1.0 mmol/l MgCl2, 1.0 mmol/l GTP, 0.5 mg/ml BSA, 5% DMSO, 5 µmol/l [^3H]colchicine, and inhibitor at 1, 5, 20 or 50 µmol/l. These reaction conditions strongly stabilize the colchicine-binding activity of tubulin [21].

In a further experiment the test system is HeLa cells. Nature of the experiment: Mitotic delay and cell death in G1/S-synchronized HeLa cells (time-lapse videomicroscopy). Format: cell-based, human. To be noted: HeLa released from G1/S; 500 nmol/l. The procedure: At compound B concentrations of 5 µmol/l and above, the cells arrested robustly in metaphase (∼15 h) and then underwent cell death, as diagnosed by cell shrinkage (Fig. 3B). […] This phenotype is indicative of chromatids being unable to bind to spindle MTs and/or of spindle defects, as observed with nocodazole (Fig. 3C). […] Because drugs that inhibit tubulin polymerization also destabilize MTs, we next probed whether compound B destabilized metaphase spindles. We arrested HeLa cells in metaphase using 10 µmol/l of proteosome inhibitor MG132. […] Thus, compound B prevents tubulin assembly and destabilizes spindle MTs in cells.
Next, we determined whether the elevated antitubulin activities of compounds A6, A8, D7 and E7 (versus compound B), and the discrepancies in activity between the compounds themselves were reflected in their effects on mitosis. G1/S synchronized HeLa cells were released into growth medium containing 100 or 500 nmol/l of these compounds or compound B; the duration of the mitotic delay by the compounds and the percentage of cells undergoing subsequent cell death were scored. […] The four compounds triggered mitotic delays to an extent that directly reflects their activities in vitro (compare Fig. 6E and Fig. 6, panels B to D). […] Of note, each of our compounds acted in cells with an efficacy exceeding those measured in vitro (compare Fig. 6E and Fig. 5). This discrepancy may be due to increased compound:tubulin ratios in cells. Alternatively, the compounds may be modified intracellularly, resulting in enhanced activity. Because compound B and the four second-generation compounds are 6-furan-2-yl-3-methyl-4-oxo-4,5,6,7-tetrahydro-1H-indole-2-carboxylic acid derivatives, we have named these tubulin inhibitors “furan-metoticas”.

In the next experiment the test system is taxol-stabilized MTs. Nature of the experiment: Compound-based depolymerization of taxol-stabilized MTs in vitro. Format: biochemical, bovine. To be noted: compound 50 µmol/l; taxol (20 µmol/l)-stabilized MTs. The procedure: To test this hypothesis, we treated HeLa cells with 0.5 µmol/l taxol, thereby arresting them in metaphase with stabilized spindles. […] To quantify the taxol-mediated inhibition of MT disassembly by compound B, we measured in vitro the depolymerization of taxol (20 µmol/l)-stabilized MTs following incubation with 50 µmol/l compound B (the screen condition). Nocodazole and maytansine (both at 50 µmol/l) were included as controls. At 50 µmol/l, compound B depolymerized 3% of the taxol-stabilized MT population, while nocodazole and maytansine depolymerized 11% and 31% of the taxol-treated MTs, respectively (Fig. 4B). […] This finding further supports our hypothesis that the interaction of compound B with the stabilized MTs must have prevented the Ndc80^488 complex from establishing contact with the MT surface.
MTs were polymerized (30 min, 37°C) from a 1∶10 mixture of rhodamine-labeled:unlabeled bovine brain αβ-tubulin (Cytoskeleton) in BRB-80 buffer (80 mmol/l PIPES pH 6.8, 1 mmol/l MgCl2, 1 mmol/l EGTA) and were then stabilized with 20 µmol/l taxol. The Ndc80^488 complex (0.1 µmol/l) was incubated with 100 µmol/l compound (30 min, 24°C) in 96-well polypropylene plates (Eppendorf). The 10,000 compound DIVERset library (Chembridge) and 200 compounds from the Department of Medicinal Chemistry and Technologies, University of Rome La Sapienza were used in the screen. Next, the MTs (100 nmol/l) were added to the compound-Ndc80^488 complex solution in a 1∶1 v/v ratio. After incubation (10 min, 24°C), the reaction mixtures were transferred to 96-well glass-bottom plates (Greiner Bio-one). Each well was imaged at 519 nm and 590 nm with an IX81 Olympus inverted wide-field microscope (Olympus). Total internal reflection fluorescence imaging was performed with an Olympus IX71 inverted wide-field microscope (Olympus). ImageJ was used for image processing (NIH, USA).
Taxol-stabilized MTs were prepared and diluted as described for the Ndc80^488 binding experiments. Varying compound concentrations in 10 µl of DMSO were added to 490 µl of diluted MTs at 37°C. Following incubation (30 min, 37°C), 450 µl of each mixture was centrifuged (10 min; 30,000 rpm; 37°C) in a Beckman Optima TLX centrifuge (TLA120.1 rotor). Pellets were dissolved in 25 µl of 8 mol/l urea, and the protein content of 20 µl was compared with that from pellets formed without compound.

The structures appear in SMILES notation. Where “and” joins values, the source holds several entries; their conditions need not be identical. Equal entries are not always repeated.

As usually defined, the IC50 is the point on the concentration scale where inhibition reaches its midpoint. In the case of `Cc1c(C(=O)OC2CCCCC2)[nH]c2c1C(=O)C[C@@H](c1ccco1)C2` [A6], in experiment [1], the IC50 was ~1 µM and 1 µM; the “Fold more active than compound B in the Ndc80^488 complex-MT binding assay” value is given as around 20 fold. In the experiment with αβ-tubulin, the “Fold lower IC50 for inhibiting tubulin assembly than that of compound B” value was 2.3 fold. Further, the “Fold more active than compound B as inhibitors of [3H]colchicine-tubulin binding” value in experiment [2] is 3 fold.

With `C/C=C/COC(=O)c1[nH]c2c(c1C)C(=O)C[C@@H](c1ccco1)C2` [D7], in experiment [1], the IC50 is ~1 µM and 1 µM; the “Fold more active than compound B in the Ndc80^488 complex-MT binding assay” value is around 20 fold. Moreover, the “Fold lower IC50 for inhibiting tubulin assembly than that of compound B” value in the experiment on αβ-tubulin is given as 3.0 fold. In addition, the “Fold more active than compound B as inhibitors of [3H]colchicine-tubulin binding” value in experiment [2] is 3 fold. Further, the “Effect on mitosis at 500 nmol/l” value in the experiment on HeLa cells is on record as “robust mitotic block, followed by cell death”.

In the case of `C=CCOC(=O)c1[nH]c2c(c1C)C(=O)C[C@@H](c1ccco1)C2` [E7], in experiment [1], the IC50 is ~1 µM and 1 µM; the “Fold more active than compound B in the Ndc80^488 complex-MT binding assay” value is listed as around 20 fold. In addition, the “Fold lower IC50 for inhibiting tubulin assembly than that of compound B” value with αβ-tubulin is 4.0 fold. Besides, in experiment [2], the “Fold more active than compound B as inhibitors of [3H]colchicine-tubulin binding” value is 3 fold. Besides, in the experiment with HeLa cells, the “Effect on mitosis at 500 nmol/l” value is “robust mitotic block, followed by cell death”.

For the compound `COc1cc2cc(c1Cl)N(C)C(=O)C[C@H](OC(=O)[C@H](C)N(C)C(C)=O)[C@]1(C)O[C@H]1[C@H](C)[C@@H]1C[C@@](O)(NC(=O)O1)[C@H](OC)/C=C/C=C(\C)C2` [maytansine, reference compound], the “Taxol-stabilized MT population depolymerized” value in the experiment on taxol-stabilized MTs was 31%.

Source of the values: publication PMC2904697, “A Screen for Kinetochore-Microtubule Interaction Inhibitors Identifies Novel Antitubulin Compounds” (PLoS ONE, 2010).
